Experimental findings from patent US11802120B2, “Fused cyclic urea derivatives as CRHR2 antagonist” (RaQualia Pharma Inc., priority 2018, dated 2023) are described below.

For this assay, the target named is T1, human CRHR2-alpha (Homo sapiens, UniProt Q13324).
T1 sequence (Q13324 1-411): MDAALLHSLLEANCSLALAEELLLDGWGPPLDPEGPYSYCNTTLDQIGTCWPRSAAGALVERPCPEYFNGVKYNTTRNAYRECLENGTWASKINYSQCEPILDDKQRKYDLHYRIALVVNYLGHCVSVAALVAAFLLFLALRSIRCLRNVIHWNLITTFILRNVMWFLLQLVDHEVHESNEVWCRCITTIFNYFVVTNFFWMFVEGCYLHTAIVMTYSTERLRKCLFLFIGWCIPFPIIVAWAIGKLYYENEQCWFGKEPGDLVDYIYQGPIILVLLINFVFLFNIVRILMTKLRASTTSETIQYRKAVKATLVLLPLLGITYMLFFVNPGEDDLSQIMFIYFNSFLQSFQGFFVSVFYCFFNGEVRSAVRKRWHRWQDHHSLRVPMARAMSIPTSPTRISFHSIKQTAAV
Put plainly: cAMP functional assay for human CRHR2 (LANCE Ultra cAMP, TR-FRET). It counts as cell-based. The settings on record: CHO-K1 cells expressing human CRHR2-alpha, agonist human urocortin2 at EC80, cAMP; read-out: IC50 against CRHR2. The procedure, abridged:
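CHO-K1 stable lines; 4,000 cells/well; compound 30 min, 25° C; EC80 agonist (human urocortin2 → CRHR2, CRF → CRHR1) 30 min, 25° C; buffer HBSS/0.1% BSA/0.5 mM IBMX/5 mM Hepes pH 7.4; Eu-cAMP tracer + ULight antibody 60 min; TR-FRET read; IC50 from % inhibition curves.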
With `CNc1cc(C)c(-n2c(=O)n(C[C@H]3CC[C@H](NC(=O)c4cc(Cl)cnc4C(F)(F)F)CC3)c3ccccc32)cn1` [Example 545, 5-chloro-N-((1r,4r)-4-((3-(4-methyl-6-(methylamino)pyridin-3-yl)-2-oxo-2,3-dihydro-1H-benzo[d]imidazol-1-yl)methyl)cyclohexyl)-2-(trifluoromethyl)nicotinamide], the IC50 is below 300 nM.
As for `Cn1ncc2cc(-n3c(=O)n(C[C@H]4CC[C@H](NC(=O)c5cc(Cl)cnc5C(F)F)CC4)c4cccnc43)ccc21` [Example 547, 5-chloro-2-(difluoromethyl)-N-((1r,4r)-4-((3-(1-methyl-1H-indazol-5-yl)-2-oxo-2,3-dihydro-1H-imidazo[4,5-b]pyridin-1-yl)methyl)cyclo-hexyl)nicotinamide], the figure is below 300 nM; as for `CNC(=O)c1ccc(-n2c(=O)n(C[C@H]3CC[C@H](NC(=O)c4cc(Cl)cnc4C(F)F)CC3)c3c(F)cccc32)cn1` [Example 548, 5-(3-(((1r,4r)-4-(5-chloro-2-(difluoromethyl)nicotina-mido)cyclohexyl)methyt)-4-fluoro-2-oxo-2,3-dihydro-1H-benzo[d]imidazol-1-yl)-N-methylpicolinamide], below 300 nM.
Under `O=C(NCCF)c1ccc(-n2c(=O)n(C[C@H]3CC[C@H](NC(=O)c4cc(Cl)cnc4C(F)F)CC3)c3ccccc32)cn1` [Example 549, 5-(3-(((1r,4r)-4-(5-chloro-2-(difluoromethyl)nicotina-mido)cyclohexyl)methyl)-2-oxo-2,3-dihydro-1H-benzo[d]imidazol-1-yl)-N-(2-fluoroethyl)picolinamide] stands below 300 nM; under `CCNC(=O)c1ccc(-n2c(=O)n(C[C@H]3CC[C@H](NC(=O)c4cc(Cl)cnc4C(F)F)CC3)c3ccccc32)cn1` [Example 551, 5-(3-(((1r,4r)-4-(5-chloro-2-(difluoromethyl)nicotina-mido)cyclohexyl)methyl)-2-oxo-2,3-dihydro-1H-benzo [d]imidazol-1-yl)-N-ethylpicolinamide], below 300 nM; under `CNc1ncc(-n2c(=O)n(C[C@H]3CC[C@H](NC(=O)c4cc(Cl)cnc4C)CC3)c3ccccc32)cc1F` [Example 552, 5-chloro-N-((1r,4r)-4-((3-(5-fluoro-6-(methylamino)pyridin-3-yl)-2-oxo-2,3-dihydro-1H-benzo[d]imidazol-1-yl)methyl)cyclohexyl)-2-methylnicotinamide], below 300 nM.
Under `Cc1ncc(Cl)cc1C(=O)N[C@H]1CC[C@H](Cn2c(=O)n(-c3cnc(OCCO)c(F)c3)c3ccccc32)CC1` [Example 553, 5-chloro-N-((1r,4r)-4-((3-(5-fluoro-6-(2-hydroxyethoxy)pyridin-3-yl)-2-oxo-2,3-dihydro-1H-benzo[d]imidazol-1-yl)methyl)cyclohexyl)-2-methylnicotinamide] stands below 300 nM.
As to `COC1CN(c2ccc(-n3c(=O)n(C[C@H]4CC[C@H](NC(=O)c5cc(Cl)cnc5C(F)F)CC4)c4ccccc43)cn2)C1` [Example 554, 5-chloro-2-(difluoromethyl)-N-((1r,4r)-4-((3-(6-(3-methoxyazetidin-1-yl)pyridin-3-yl)-2-oxo-2,3-dihydro-1H-benzo[d]imidazol-1-yl)methyl)cyclohexyl)nicotinamide], the concentration for half-maximal inhibition (IC50) was below 300 nM.
Under `CNC(=O)c1ncc(-n2c(=O)n(C[C@H]3CC[C@H](NC(=O)c4cc(Cl)cnc4C(F)F)CC3)c3ccccc32)cc1Cl` [Example 555, 3-chloro-5-(3-(((1r,4r)-4-(5-chloro-2-(difluoromethyl)nicotinamido)cyclohexyl)methyl)-2-oxo-2,3-dihydro-1H-benzo[d]imidazol-1-yl)-N-methylpicolinamide] stands below 300 nM; under `CNC(=O)c1ccc(-n2c(=O)n(C[C@H]3CC[C@H](NC(=O)c4cc(Cl)cnc4C(F)F)CC3)c3ccccc32)c(C)n1` [Example 556, 5-(3-(((1r,4r)-4-(5-chloro-2-(difluoromethyl)nicotina-mido)cyclohexyl)methyl)-2-oxo-2,3-dihydro-1H-benzo[d]imidazol-1-yl)-N,6-dimethylpicolinamide], below 300 nM.
As for `CNC(=O)c1ccc(-n2c(=O)n(C[C@H]3CC[C@H](NC(=O)c4c5ccccc5nn4CC(F)(F)F)CC3)c3ccccc32)cn1` [Example 557, N-((1r,4r)-4-((3-(6-(methylcarbamoyl)pyridin-3-yl)-2-oxo-2,3-dihydro-1H-benzo[d]imidazol-1-yl)methyl)cyclohexyl)-2-(2,2,2-trifluoroethyl)-2H-indazole-3-carboxamide], the IC50 was below 300 nM.
Under `Cc1cc(N2CCNC2=O)ncc1-n1c(=O)n(C[C@H]2CC[C@H](NC(=O)c3cc(Cl)cnc3C(F)F)CC2)c2ccccc21` [Example 558, 5-chloro-2-(difluoromethyl)-N-((1r,4r)-4-((3-(4-methyl-6-(2-oxoimidazolidin-1-yl)pyridin-3-yl)-2-oxo-2,3-dihydro-1H-benzo[d]imidazol-1-yl)methyl)cyclohexyl) nicotinamide] stands below 300 nM; under `CC(=O)Nc1cc(C)c(-n2c(=O)n(C[C@H]3CC[C@H](NC(=O)c4cc(Cl)cnc4C(F)F)CC3)c3ccccc32)cn1` [Example 559, N-((1r,4r)-4-((3-(6-acetamido-4-methylpyridin-3-yl)-2-oxo-2,3-dihydro-1H-benzo[d]imidazol-1-yl)methyl)cyclo-hexyl)-5-chloro-2-(difluoro-methyl)nicotinamide], below 300 nM; under `CCC(=O)Nc1cc(C)c(-n2c(=O)n(C[C@H]3CC[C@H](NC(=O)c4cc(Cl)cnc4C(F)F)CC3)c3ccccc32)cn1` [Example 560, 5-chloro-2-(difluoromethyl)-N-((1r,4r)-4-((3-(4-methyl-6-propionamidopyridin-3-yl)-2-oxo-2,3-dihydro-1H-benzo [d]imidazol-1-yl)methyl)cyclo-hexyl)nicotinamide], below 300 nM.
Under `Cc1cc(N2CCCC2=O)ncc1-n1c(=O)n(C[C@H]2CC[C@H](NC(=O)c3cc(Cl)cnc3C(F)F)CC2)c2ccccc21` [Example 561, 5-chloro-2-(difluoromethyl)-N-((1r,4r)-4-((3-(4-methyl-6-(2-oxopyrrolidin-1-yl)pyridin-3-yl)-2-oxo-2,3-dihydro-1H-benzo[d]imidazol-1-yl)methyl)cyclohexyl) nicotinamide] stands below 300 nM.
As for `CNC(=O)c1ccc(-n2c(=O)n(C[C@H]3CC[C@H](NC(=O)c4cc(Cl)cnc4C(F)F)CC3)c3ccc(F)cc32)cn1` [Example 562, 5-(3-(((1r,4r)-4-(5-chloro-2-(difluororomethyl)nicotina-mido)cyclohexyl)methyl)-6-fluoro-2-oxo-2,3-dihydro-1H-benzo[d]imidazol-1-yl)-N-methylpicolinamide], the figure is below 300 nM.
`O=C(N[C@H]1CC[C@H](Cn2c(=O)n(-c3cnc(OCCO)cn3)c3ccccc32)CC1)c1cc(Cl)cnc1C(F)F` [Example 563, 5-chloro-2-(difluoromethyl)-N-((1r,4r)-4-((3-(5-(2-hydroxyethoxy)pyrazin-2-yl)-2-oxo-2,3-dihydro-1H-benzo[d]imidazol-1-yl)methyl)cyclohexyl)nicotinamide]: the IC50 was below 300 nM.
Under `O=C(N[C@H]1CC[C@H](Cn2c(=O)n(-c3cccc(N4CCOCC4)c3)c3ccccc32)CC1)c1cc(Cl)cnc1C(F)F` [Example 566, 5-chloro-2-(difluoromethyl)-N-((1r,4r)-4-((3-(3-morpholinophenyl)-2-oxo-2,3-dihydro-1H-benzo[d]imidazol-1-yl)methyl)cyclo-hexyl)nicotinamide] stands below 300 nM.

One may read the IC50 as the concentration that inhibits the measured activity by half.
